Test results from PMC6251817 (Acta Pharmaceutica Sinica. B, 2018).

These compounds were tested against T1, PTP1B (recombinant human GST-PTP1B) (Homo sapiens, UniProt P18031) (assay: pNPP hydrolysis, absorbance […] nm).
T1 sequence (P18031 1-435): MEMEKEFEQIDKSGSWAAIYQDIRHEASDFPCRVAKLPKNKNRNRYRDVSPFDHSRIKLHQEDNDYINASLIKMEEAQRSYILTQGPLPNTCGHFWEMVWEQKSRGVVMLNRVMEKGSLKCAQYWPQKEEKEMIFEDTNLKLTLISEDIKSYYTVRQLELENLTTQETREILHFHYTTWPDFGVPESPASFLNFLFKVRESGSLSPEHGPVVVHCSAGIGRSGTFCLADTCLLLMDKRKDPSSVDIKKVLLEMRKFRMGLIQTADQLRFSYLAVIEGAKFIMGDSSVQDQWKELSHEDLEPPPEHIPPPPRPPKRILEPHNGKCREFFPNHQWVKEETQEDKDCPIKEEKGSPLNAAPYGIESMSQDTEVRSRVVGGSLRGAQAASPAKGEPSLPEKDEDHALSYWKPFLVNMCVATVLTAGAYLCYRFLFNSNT
Type: biochemical
`COc1ccc(C(=O)CCc2ccc(C(=O)Nc3ccc(C(=O)Nc4ccc(N5CCOCC5)cc4)cc3)cc2)cc1` [compound 8, 4-(3-(4-Methoxyphenyl)-3-oxopropyl)-N-(4-((4-morpholinophenyl)carbamoyl)phenyl)benzamide] showed an IC50 of 7.26 µM.
In the case of `COc1ccc(CC(=O)Nc2ccc(NC(=O)c3ccc(CCC(=O)c4ccc(OC)cc4)cc3)cc2)cc1` [compound 27, 4-(3-(4-Methoxyphenyl)-3-oxopropyl)-N-(4-(2-(4-methoxyphenyl)acetamido)phenyl)benzamide], the IC50 is reported as 4.19 µM.
Compound `COc1ccc(C(=O)NCc2ccc(C(=O)Nc3ccc(C(=O)Nc4ccccc4OC)cc3)cc2)cc1` [compound 23, 4-Methoxy-N-(4-((4-((2-methoxyphenyl)carbamoyl)phenyl)carbamoyl)benzyl)benzamide] has an IC50 of 4.76 µM.
For `COc1ccc(C(=O)NCc2ccc(C(=O)Nc3ccc(NC(=O)c4ccccc4)cc3)cc2)cc1` [compound 31, N-(4-Benzamidophenyl)-4-((4-methoxybenzamido)methyl)benzamide], the IC50 was 6.22 µM.
Work on `COc1ccc(C(=O)NCc2ccc(C(=O)Nc3ccc(C(=O)Nc4ccc(N5CCOCC5)cc4)cc3)cc2)cc1` [compound 20, 4-Methoxy-N-(4-((4-((4-morpholinophenyl)carbamoyl)phenyl)carbamoyl)benzyl)benzamide] yielded an IC50 of 6.85 µM.
Compound `O=C(/C=C/c1ccc(C(=O)Nc2ccc(C(=O)Nc3ccccc3)cc2)cc1)c1ccc(F)cc1` [compound 9, (E)-4-(3-(4-Fluorophenyl)-3-oxoprop-1-en-1-yl)-N-(4-(phenylcarbamoyl)phenyl)benzamide] has an IC50 of 8.81 µM.
Work on `CN(C)c1ccc(C(=O)CCc2ccc(C(=O)Nc3ccc(C(=O)Nc4ccccc4)cc3)cc2)cc1` [compound 4, 4-(3-(4-(Dimethylamino)phenyl)-3-oxopropyl)-N-(4-(phenylcarbamoyl)phenyl)benzamide] yielded an IC50 of 4.9 µM.
With `Cc1ccc(C(=O)/C=C/c2ccc(C(=O)Nc3ccc(C(=O)Nc4ccccc4)cc3)cc2)cc1` [compound 10, (E)-4-(3-Oxo-3-(p-tolyl)prop-1-en-1-yl)-N-(4-(phenylcarbamoyl)phenyl)benzamide] the IC50 was 5.23 µM.
In the case of `COc1ccc(CC(=O)Nc2ccc(NC(=O)c3ccc(/C=C/C(=O)c4ccc(OC)cc4)cc3)cc2)cc1` [compound 28, (E)-4-(3-(4-Methoxyphenyl)-3-oxoprop-1-en-1-yl)-N-(4-(2-(4-methoxyphenyl)acetamido)phenyl)benzamide], the IC50 is reported as 5.91 µM.
For `COc1ccc(/C=C/C(=O)c2ccc(C(=O)Nc3ccc(C(=O)Nc4ccccc4)cc3)cc2)cc1` [compound 15, (E)-4-(3-(4-Methoxyphenyl)acryloyl)-N-(4-(phenylcarbamoyl)phenyl)benzamide], the IC50 was 7.74 µM.
With `COc1ccc(C(=O)NCc2ccc(C(=O)Nc3ccc(C(=O)Nc4ccccc4)cc3)cc2)cc1` [compound 18, 4-Methoxy-N-(4-((4-(phenylcarbamoyl)phenyl)carbamoyl)benzyl)benzamide] the IC50 was 8.16 µM.
`COc1ccc(C(=O)CCc2ccc(C(=O)Nc3cccc(C(=O)Nc4cc(OC)cc(OC)c4)c3)cc2)cc1` [compound 33, N-(3,5-Dimethoxyphenyl)-3-(4-(3-(4-methoxyphenyl)-3-oxopropyl)benzamido)benzamide] showed an IC50 of 24.3 µM.
Work on `COc1ccc(/C=C/C(=O)c2ccc(C(=O)Nc3ccc(NC(=O)Cc4ccc(OC)cc4)cc3)cc2)cc1` [compound 29, (E)-N-(4-(2-(4-Methoxyphenyl)acetamido)phenyl)-4-(3-(4-methoxyphenyl)acryloyl)benzamide] yielded an IC50 of 4.7 µM.
